Reference: ChEMBL document CHEMBL5303304, “EUbOPEN Chemogenomics Library - IncuCyte” (2023)

What was measured:
Format in all cases: toxicity, cell-based
HEK-293T = assay: Incucyte cell viability with HEK293T; conditions: human, 10 µM, compound concentration 10 uM
Fibroblast = assay: Incucyte cell viability with human fibroblast; conditions: 10 µM, compound concentration 10 uM
U2OS = assay: Incucyte cell viability with U2OS; conditions: human, 10 µM, compound concentration 10 uM
Also: unitless GR value; below 1 slowed growth and below 0 cell loss.

Row | SMILES | Growth Rate (HEK-293T; 0 h, replicate number 2) | Growth Rate (HEK-293T; 6 h, replicate number 2) | Growth Rate (HEK-293T; 12 h, replicate number 2) | Growth Rate (HEK-293T; 18 h, replicate number 2) | Growth Rate (HEK-293T; 24 h, replicate number 2) | Growth Rate (Fibroblast; 6 h, replicate number 1) | Growth Rate (Fibroblast; 6 h, replicate number 2) | Growth Rate (Fibroblast; 12 h, replicate number 1) | Growth Rate (Fibroblast; 12 h, replicate number 2) | Growth Rate (Fibroblast; 18 h, replicate number 1) | Growth Rate (Fibroblast; 24 h, replicate number 1) | Growth Rate (U2OS; 12 h, replicate number 1) | Growth Rate (HEK-293T; 18 h, replicate number 1) | Growth Rate (HEK-293T; 24 h, replicate number 1) | Growth Rate (Fibroblast; 18 h, replicate number 2) | Growth Rate (U2OS; 12 h, replicate number 2) | Growth Rate (U2OS; 18 h, replicate number 1) | Growth Rate (U2OS; 24 h, replicate number 2) | Growth Rate (Fibroblast; 0 h, replicate number 2) | Growth Rate (U2OS; 18 h, replicate number 2) | further results
1 | CCCCCCCN(CCc1ccc(SC(C)(C)C(=O)O)cc1)C(=O)Nc1ccc(F)cc1F [GSK-9578] | -0.91 | 0.66 | 0.73 | 0.5 | 0.55 | 0.88 | 0.55 | 0.69 | 0.91 | 0.7 | 0.88 | 0.86 |  |  |  |  |  |  |  |  | Growth Rate (HEK-293T; 0 h, replicate number 1): -0.27; Growth Rate (Fibroblast; 0 h, replicate number 1): 0.58; Growth Rate (U2OS; 6 h, replicate number 1): 0
2 | C[C@@H](Oc1cc(-n2cnc3ccc(OC4CCN(C)CC4)cc32)sc1C(N)=O)c1ccccc1Cl [GSK-579289A] | 0.69 | 0.94 | 0.97 | 1 | 0.99 | 0.99 | 1 | 0.94 |  | 0.83 |  | 0.83 | 0.82 | 0.93 | 0.97 | 0.84 | 0.65 | 0.79 |  |  | Growth Rate (HEK-293T; 6 h, replicate number 1): 0.7; Growth Rate (HEK-293T; 12 h, replicate number 1): 0.7; Growth Rate (U2OS; 0 h, replicate number 2): 0.48; Growth Rate (U2OS; 24 h, replicate number 1): 0.93
3 | O=C(O)c1ccc(-c2c[nH]c3ncc(-c4ccccc4)cc23)cc1C1CCCC1 [GSK-650394] | 0.55 |  |  |  |  | 0.36 | -0.95 | -1 | 0.77 | 0.91 | 0.38 | 0.79 |  |  |  | 0.98 | 0.86 | 0.96 | -0.45 | 0.92 | Growth Rate (HEK-293T; 0 h, replicate number 1): 0.23; Growth Rate (U2OS; 0 h, replicate number 1): 0.01; Growth Rate (U2OS; 6 h, replicate number 1): 0.39
4 | CN(C)c1cc2c(Nc3ccc4c(cnn4Cc4ccccc4)c3)ncnc2cn1 [GW282974X] | -0.53 |  | 0.95 | 0.77 | 0.61 |  |  |  |  |  | 0.77 | 0.77 | 0.8 | 0.59 | 0.86 | 0.87 | 0.83 | 0.65 |  | 0.91 | Growth Rate (HEK-293T; 0 h, replicate number 1): -1; Growth Rate (Fibroblast; 0 h, replicate number 1): -1; Growth Rate (Fibroblast; 24 h, replicate number 2): 0.69; Growth Rate (U2OS; 0 h, replicate number 1): -0.05; Growth Rate (U2OS; 6 h, replicate number 2): 0.77
5 | O=C1Nc2ccc(C(=O)c3ccco3)cc2C1=Cc1cc(Cl)c(O)c(Cl)c1 [GW406108X] | 0.57 | 0.56 | 0.31 | 0.17 | 0.11 |  |  |  | 1 | 1 | 0.7 | 0.5 | 0.41 | 0.24 | 0.83 | 0.24 | 0.4 | 0.38 |  | 0.33 | Growth Rate (HEK-293T; 0 h, replicate number 1): -1; Growth Rate (HEK-293T; 6 h, replicate number 1): 0.79; Growth Rate (HEK-293T; 12 h, replicate number 1): 0.25; Growth Rate (Fibroblast; 0 h, replicate number 1): -1; Growth Rate (Fibroblast; 24 h, replicate number 2): 0.64; Growth Rate (U2OS; 6 h, replicate number 2): -0.19; Growth Rate (U2OS; 24 h, replicate number 1): 0.56
6 | Cc1cc(SCc2sc(-c3ccc(C(F)(F)F)cc3)nc2C)ccc1OCC(=O)O [GW501516] | -0.84 | 0.71 | 0.95 | 0.93 | 0.83 |  | 0.42 | 0.83 | 0.31 |  |  |  | 1 | 0.98 | 0.73 | 0.77 |  | 0.98 | 0.89 | 0.92 | Growth Rate (HEK-293T; 6 h, replicate number 1): 0.99; Growth Rate (Fibroblast; 24 h, replicate number 2): 0.83; Growth Rate (U2OS; 0 h, replicate number 2): 0.72; Growth Rate (U2OS; 6 h, replicate number 2): 0.95
7 | CCn1c(-c2nonc2N)nc2ccccc21 [GW549034X] | -0.14 |  |  |  |  |  |  |  |  |  |  |  |  |  |  |  |  | 0.93 | -0.96 | 0.97 | Growth Rate (HEK-293T; 0 h, replicate number 1): -1; Growth Rate (Fibroblast; 0 h, replicate number 1): -1; Growth Rate (U2OS; 0 h, replicate number 1): -1
8 | Cc1nc(-c2ccc(C(F)(F)F)cc2)sc1C(=O)NCc1ccc(OC(C)(C)C(=O)O)cc1 [GW590735] | 0.73 | 0.83 | 0.93 | 0.92 | 0.72 | 0.76 | 0.99 | 0.82 |  | 0.71 | 0.83 | 0.91 |  |  |  |  | 0.93 |  | 0.77 |  | Growth Rate (HEK-293T; 0 h, replicate number 1): 0.96; Growth Rate (U2OS; 0 h, replicate number 1): -0.11; Growth Rate (U2OS; 6 h, replicate number 1): 0.91; Growth Rate (U2OS; 24 h, replicate number 1): 0.97
9 | CCS(=O)(=O)c1ccc(OC)c(Nc2ncc(-c3cccc(F)c3)o2)c1 [GW621970X] |  | -0.44 | 0.2 | 0.63 | 0.8 | -0.04 | 0.01 | 0.4 | 0.24 | 0.72 | 0.73 |  | 0.22 | 0.43 | 0.7 | 0.84 | 0.79 | 0.77 | -0.51 | 0.86 | Growth Rate (HEK-293T; 6 h, replicate number 1): -0.48; Growth Rate (HEK-293T; 12 h, replicate number 1): -0.12; Growth Rate (Fibroblast; 24 h, replicate number 2): 0.99; Growth Rate (U2OS; 6 h, replicate number 2): 0.74; Growth Rate (U2OS; 24 h, replicate number 1): 0.94
10 | COc1ccc(COc2ccc(Cc3cnc(N)nc3N)cc2OC)cc1 [GW632580X] |  |  | 0.92 | 0.87 | 0.92 | 0.69 | 0.45 | 0.73 | 0.22 | 0.86 | 0.78 | 0.7 | 0.93 | 0.91 | 0.48 |  | 0.63 |  | -0.61 |  | Growth Rate (HEK-293T; 6 h, replicate number 1): 0.7; Growth Rate (HEK-293T; 12 h, replicate number 1): 0.83; Growth Rate (Fibroblast; 24 h, replicate number 2): 0.57; Growth Rate (U2OS; 0 h, replicate number 2): 0.63; Growth Rate (U2OS; 6 h, replicate number 1): 0.52; Growth Rate (U2OS; 24 h, replicate number 1): 0.89
11 | O=C(CCCN1CCC(O)(c2ccc(Cl)cc2)CC1)c1ccc(F)cc1 [HALOPERIDOL] | -0.68 | 0.42 | 0.63 | 0.65 | 0.75 | 0.04 | -0.32 | 0.4 | -0.02 | 0.49 | 0.65 | -0.1 |  |  | 0.22 |  |  |  |  | 1 | Growth Rate (Fibroblast; 24 h, replicate number 2): 0.4; Growth Rate (U2OS; 0 h, replicate number 1): 0.26; Growth Rate (U2OS; 0 h, replicate number 2): 0.79; Growth Rate (U2OS; 6 h, replicate number 2): 0.98
12 | C=CC(=O)N1CCC[C@@H](n2nc(-c3ccc(Oc4ccccc4)cc3)c3c(N)ncnc32)C1 [IBRUTINIB] | -1 | -0.48 | -0.25 | 0.27 | 0.25 | 0.04 | 0.23 |  | 0.79 | 0.66 |  | 0.53 | 0.36 | 0.51 |  | 0.61 | 0.56 | 0.55 |  |  | Growth Rate (HEK-293T; 6 h, replicate number 1): -0.5; Growth Rate (HEK-293T; 12 h, replicate number 1): -0.04; Growth Rate (U2OS; 0 h, replicate number 1): -0.06; Growth Rate (U2OS; 0 h, replicate number 2): 0.8; Growth Rate (U2OS; 6 h, replicate number 1): -0.04; Growth Rate (U2OS; 6 h, replicate number 2): 0.61; Growth Rate (U2OS; 24 h, replicate number 1): 0.63
13 | O=C1NC(c2cccc([N+](=O)[O-])c2)=CCN1c1ccccc1O [ICILLIN] | 0.85 |  |  |  |  | -0.8 | 0.04 | 0.02 | 0.48 |  |  |  |  |  | 0.89 | 0.76 |  | 0.93 | -0.28 | 0.96 | Growth Rate (Fibroblast; 0 h, replicate number 1): 0.99; Growth Rate (Fibroblast; 24 h, replicate number 2): 0.91; Growth Rate (U2OS; 0 h, replicate number 2): 1; Growth Rate (U2OS; 6 h, replicate number 2): 0.82
14 | CC[C@H](Nc1ncnc2[nH]cnc12)c1nc2cccc(F)c2c(=O)n1-c1ccccc1 [IDELALISIB] |  | -0.34 | 0.12 | 0.29 | 0.36 |  | 0.25 |  | 0.49 |  | 0.92 |  | 0.31 | 0.38 | 0.95 |  |  | 0.94 | -0.51 |  | Growth Rate (HEK-293T; 6 h, replicate number 1): 0.29; Growth Rate (HEK-293T; 12 h, replicate number 1): 0.62; Growth Rate (Fibroblast; 0 h, replicate number 1): 0.15; Growth Rate (U2OS; 6 h, replicate number 2): 0.92
